In ChEMBL document CHEMBL3870330, “Exploring the anti-biofilm activity of cinnamic acid derivatives in Candida albicans” (2016):
Converted amounts (≈) assume the structure as drawn.

How the values were obtained:
Type in all cases: functional
Candida albicans [1] = assay: Antibiofilm activity against mature biofilm of Candida albicans ATCC 10231 after 24 hrs by XTT reduction assay
Candida albicans [2] = assay: Antibiofilm activity against Candida albicans ATCC 10231 after 24 hrs by XTT reduction assay
Candida albicans [3] = assay: Antifungal activity against planktonic cells of Candida albicans ATCC 10231 after 48 hrs by microdilution assay; settings: ATCC 10231, 48 h

Q: Which results are given for `O=C(O)/C=C/c1ccccc1` [CINNAMIC ACID]?
A: MBIC50 (Candida albicans [1]): >128 µg/mL; MBIC50 (Candida albicans [2]): >128 µg/mL; MIC50 (Candida albicans [3]): > 128 µg/mL

Q: How did the MBIC50 (Candida albicans [1]) turn out when `O=C(/C=C/c1ccccc1)N1CCN(c2ncccc2[N+](=O)[O-])CC1` was run?
A: The MBIC50 was over 128 µg/mL.

Q: And the MBIC50 (Candida albicans [2])?
A: Its MBIC50 is over 128 µg/mL.

Q: And the MIC50 (Candida albicans [3])?
A: The MIC50 was over 128 µg/mL.

Q: What does the source list for `Cc1ncc([N+](=O)[O-])n1CCOC(=O)/C=C/c1ccccc1`?
A: MBIC50 (Candida albicans [1]): >128 µg/mL; MBIC50 (Candida albicans [2]): >=32 - 128 ug ml-1; MIC50 (Candida albicans [3]): ≥ 128 µg/mL

Q: How did the MBIC50 (Candida albicans [1]) turn out when `O=C(/C=C/c1ccccc1)OC(Cn1ccnc1)c1ccc(Cl)cc1Cl` (stereo unspecified) was run?
A: Its MBIC50 is 8 to 64 µg/mL.

Q: What about the MBIC50 (Candida albicans [2]) of the same compound?
A: Its MBIC50 is 2 to 64 µg/mL.

Q: And the MIC50 (Candida albicans [3])?
A: Its MIC50 is 2 to 16 µg/mL (≈ 5.16 to 41.3 µM).

Q: Which MBIC50 (Candida albicans [1]) does the source give for `O=C(/C=C/c1ccccc1)N1CCN(c2ccc([N+](=O)[O-])cc2)CC1` here?
A: The MBIC50 was over 32 to 128 µg/mL.

Q: And the MBIC50 (Candida albicans [2])?
A: Its MBIC50 is over 128 µg/mL.

Q: What about the MIC50 (Candida albicans [3]) of the same compound?
A: Its MIC50 is 32 to 128 µg/mL (≈ 94.8 to 379 µM).

Q: How did the MBIC50 (Candida albicans [1]) turn out when `O=C(/C=C/c1ccccc1)NCCc1c[nH]c2ccccc12` was run?
A: Its MBIC50 is over 128 µg/mL.

Q: What about the MBIC50 (Candida albicans [2]) of the same compound?
A: The MBIC50 was 8 to 128 µg/mL.

Q: What about the MIC50 (Candida albicans [3]) of the same compound?
A: The MIC50 was over 128 µg/mL.

Q: Which results are given for `O=C(/C=C/c1ccccc1)Nc1nc2ccc([N+](=O)[O-])cc2s1`?
A: MBIC50 (Candida albicans [1]): >=64 - 128 ug ml-1; MBIC50 (Candida albicans [2]): >=64 - 128 ug ml-1; MIC50 (Candida albicans [3]): > 128 µg/mL

Q: For `O=C(/C=C/c1ccccc1)OCc1ccc([N+](=O)[O-])o1`, which MBIC50 (Candida albicans [1]) is on record?
A: Its MBIC50 is 64 µg/mL.

Q: And the MBIC50 (Candida albicans [2])?
A: Its MBIC50 is 16 to 64 µg/mL.

Q: And the MIC50 (Candida albicans [3])?
A: The MIC50 was 2 to 16 µg/mL (≈ 7.32 to 58.6 µM).

Q: What does the source list for `O=C(/C=C/c1ccccc1)NCCCn1ccnc1`?
A: MBIC50 (Candida albicans [1]): >128 µg/mL; MBIC50 (Candida albicans [2]): >128 µg/mL; MIC50 (Candida albicans [3]): > 128 µg/mL

Q: With `O=C(/C=C/c1ccccc1)OC(Cn1cncn1)(Cn1cncn1)c1ccc(F)cc1F` as the compound, how does the MBIC50 (Candida albicans [1]) read?
A: The MBIC50 was over 32 to 128 µg/mL.

Q: And the MBIC50 (Candida albicans [2])?
A: The MBIC50 was 4 to 128 µg/mL.

Q: What about the MIC50 (Candida albicans [3]) of the same compound?
A: The MIC50 was 0.5 to 64 µg/mL (≈ 1.15 to 147 µM).

Q: What does the source list for `OC(Cn1cncn1)(Cn1cncn1)c1ccc(F)cc1F` [FLUCONAZOLE]?
A: MBIC50 (Candida albicans [1]): >128 µg/mL; MBIC50 (Candida albicans [2]): 128 µg/mL; MIC50 (Candida albicans [3]): 0.5 µg/mL (≈ 1.63 µM)

Q: With `O=C(/C=C/c1ccccc1)OCc1ccco1` as the compound, how does the MBIC50 (Candida albicans [1]) read?
A: The MBIC50 was “>=128 ug ml-1”.

Q: And the MBIC50 (Candida albicans [2])?
A: Its MBIC50 is “>=16 - 128 ug ml-1”.

Q: What about the MIC50 (Candida albicans [3]) of the same compound?
A: Its MIC50 is 64 to 128 µg/mL (≈ 280 to 561 µM).
